Calls of active or inactive are those of the source. The rule behind the calls is not given here.
How the values were obtained:
[1] = target: Bromodomain-containing protein 4 (Homo sapiens, UniProt O60885); assay: Inhibition of His-tagged BRD4-BD1 (unknown origin) at 10 nM incubated for 30 mins by Alphascreen assay relative to control
SUD4 [2] = assay: Antiproliferative against activity human SU-DHL-4 cells assessed as inhibition of cell growth incubated for 72 hrs by Celltiter-luminescence analysis; format: functional, cell-based; conditions: SU-DHL-4, 72 h
[3] = target: Phosphatidylinositol 4,5-bisphosphate 3-kinase catalytic subunit beta isoform (Homo sapiens, UniProt P42338); assay: Inhibition of PI3Kbeta (unknown origin) incubated for 2 hrs in presence of ATP by ADP-kinaseGlo reagent based assay
SU-DHL-6 [4] = assay: Antiproliferative activity against human SU-DHL-6 cells assessed as inhibition of cell proliferation by measuring reduction in cell count incubated for 6 days by photographic analysis; format: functional, cell-based; conditions: dose 12.5-50 nM, time 6.0 day
SUD4 [5] = assay: Cell cycle arrest in human SU-DHL-4 cells assessed as accumulation of cells at S phase incubated for 12 hrs by PI staining based flow cytometric analysis; format: functional; conditions: dose 0.25-1 µM
SUD4 [6] = assay: Induction of apoptosis in human SU-DHL-4 cells assessed as late apoptotic cells at 1 uM incubated for 24 hrs by Annexin V-FITC/PI staining based flow cytometric analysis (reference value: 6.74 %); format: functional
SUD4 [7] = assay: Induction of apoptosis in human SU-DHL-4 cells assessed as late apoptotic cells at 0.5 uM incubated for 24 hrs by Annexin V-FITC/PI staining based flow cytometric analysis (reference value: 6.74 %); format: functional
SU-DHL-6 [8] = assay: Induction of apoptosis in human SU-DHL-6 cells assessed as viable cells at 0.25 uM incubated for 24 hrs by Annexin V-FITC/PI staining based flow cytometric analysis (reference value: 61.2 %); format: functional; conditions: read-out: Activity
SU-DHL-6 [9] = assay: Induction of apoptosis in human SU-DHL-6 cells assessed as early apoptotic cells at 0.5 uM incubated for 24 hrs by Annexin V-FITC/PI staining based flow cytometric analysis (reference value: 32.1 %); format: functional
SU-DHL-6 [10] = assay: Induction of apoptosis in human SU-DHL-6 cells assessed as late apoptotic cells at 1 uM incubated for 24 hrs by Annexin V-FITC/PI staining based flow cytometric analysis (reference value: 6.43 %); format: functional
[11] = target: Glycogen synthase kinase-3 beta (Homo sapiens) (UniProt P49841); assay: Inhibition of GSK-3beta phosphorylation in human SU-DHL-6 cells incubated for 12 hrs by Western blot analysis; format: cell-based; conditions: dose 0.25-1 µM
SU-DHL-6 [12] = assay: Downregulation of c-Myc expression in human SU-DHL-6 cells at 0.25 to 1 uM incubated for 12 hrs by Western blot analysis; format: functional, cell-based; conditions: dose 0.25-1 µM
[13] = Tmax in female BALB/c mouse at 1 mg/kg, iv measured after 12 hrs by LC-MS/MS analysis; format: ADME, organism-based; conditions: in vivo
[14] = Cmax in female BALB/c mouse at 20 mg/kg, po measured after 24 hrs by LC-MS/MS analysis; format: ADME, organism-based; conditions: in vivo
[15] = Oral bioavailability in female BALB/c mouse at 20 mg/kg measured after 24 hrs by LC-MS/MS analysis; format: ADME, organism-based; conditions: in vivo
[16] = Toxicity in female BALB/c mouse model xenografted with human SU-DHL-6 cells assessed as effect on liver histopathology at 20 mg/kg, po administered once daily via gavage for 15 days by H and E staining based analysis; format: organism-based; conditions: in vivo, 360 h, time 15 day

Sequence of Phosphatidylinositol 4,5-bisphosphate 3-kinase catalytic subunit beta isoform (P42338 whole entry, canonical isoform): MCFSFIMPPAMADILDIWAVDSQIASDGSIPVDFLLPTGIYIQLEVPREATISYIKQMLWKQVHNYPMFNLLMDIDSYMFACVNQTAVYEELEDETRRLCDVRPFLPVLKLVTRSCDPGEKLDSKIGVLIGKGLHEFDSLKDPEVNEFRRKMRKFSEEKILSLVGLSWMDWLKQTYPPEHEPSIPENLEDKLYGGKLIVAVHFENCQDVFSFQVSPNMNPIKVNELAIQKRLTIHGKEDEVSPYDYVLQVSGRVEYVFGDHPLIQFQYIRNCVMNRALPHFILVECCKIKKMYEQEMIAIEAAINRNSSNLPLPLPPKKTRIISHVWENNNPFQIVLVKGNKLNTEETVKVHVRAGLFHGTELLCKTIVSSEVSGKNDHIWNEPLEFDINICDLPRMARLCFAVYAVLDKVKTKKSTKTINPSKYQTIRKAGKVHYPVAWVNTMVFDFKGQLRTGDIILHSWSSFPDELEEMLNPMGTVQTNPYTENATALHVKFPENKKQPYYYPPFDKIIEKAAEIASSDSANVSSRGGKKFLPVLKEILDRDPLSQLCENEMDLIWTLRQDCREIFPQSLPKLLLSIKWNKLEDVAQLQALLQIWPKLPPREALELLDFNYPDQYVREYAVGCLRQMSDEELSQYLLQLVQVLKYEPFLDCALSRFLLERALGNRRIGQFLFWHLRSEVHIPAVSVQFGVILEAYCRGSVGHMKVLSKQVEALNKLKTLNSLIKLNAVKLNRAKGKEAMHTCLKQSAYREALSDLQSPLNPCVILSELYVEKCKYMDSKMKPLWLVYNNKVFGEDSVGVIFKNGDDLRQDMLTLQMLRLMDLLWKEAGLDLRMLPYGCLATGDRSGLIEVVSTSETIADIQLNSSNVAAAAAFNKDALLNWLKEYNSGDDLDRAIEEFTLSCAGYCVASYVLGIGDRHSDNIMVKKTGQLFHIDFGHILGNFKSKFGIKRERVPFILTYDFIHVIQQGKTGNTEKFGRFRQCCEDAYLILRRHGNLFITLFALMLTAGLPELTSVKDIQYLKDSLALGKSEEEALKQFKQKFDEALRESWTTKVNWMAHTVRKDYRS
Sequence of Glycogen synthase kinase-3 beta (Homo sapiens) (P49841 whole entry, looked up): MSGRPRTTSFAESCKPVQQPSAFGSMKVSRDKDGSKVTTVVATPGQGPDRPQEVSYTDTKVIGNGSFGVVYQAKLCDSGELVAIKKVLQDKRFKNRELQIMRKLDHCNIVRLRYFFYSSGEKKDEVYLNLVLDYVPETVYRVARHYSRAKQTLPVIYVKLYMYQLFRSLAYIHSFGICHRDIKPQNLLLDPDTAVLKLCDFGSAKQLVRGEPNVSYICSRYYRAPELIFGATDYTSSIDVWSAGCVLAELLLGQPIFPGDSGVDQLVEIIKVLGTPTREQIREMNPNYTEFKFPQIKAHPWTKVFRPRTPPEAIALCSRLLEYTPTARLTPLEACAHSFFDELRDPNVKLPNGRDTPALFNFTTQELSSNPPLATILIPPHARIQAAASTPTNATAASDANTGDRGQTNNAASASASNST

- inhibition [1]: 33.7%
- IC50 [3]: 4.75 µM
- inhibition [11]: Dose-dependent-effect
- Tmax [13]: 1.98 min
- Cmax [14]: 228 ng/mL
- bioavailability [15]: 74.8%
SMILES: Cn1cc(-c2nc(N3CCOCC3)c3sc(CN4CCC(C(C)(C)O)CC4)cc3n2)c2cc[nH]c2c1=O
- IC50 (SUD4 [2]): 0.091 µM
- Activity (SU-DHL-6 [4]): Dose-dependent-effect; Stronger Effect Observed At Lower Concentration Than Those Of Sf2523
- Activity (SUD4 [5]): Dose-dependent-effect
- Activity (SUD4 [6]): 26.2%
- Activity (SUD4 [7]): 17.3%
- viability at 0.25 µM (SU-DHL-6 [8]): 53.7%
- Activity (SU-DHL-6 [9]): 41.8%
- Activity (SU-DHL-6 [10]): 8.72%
- Activity (SU-DHL-6 [12]): Active
- Activity [16]: Non-toxic
